# In patent publication US12708611B2, “Diagnostic and drug screening for molecular signatures of early onset sporadic parkinson's disease” (CEDARS-SINAI MEDICAL CENTER, priority 2018, dated 2026):
# “Also recorded” adds a separate entry of the source. Where a SMILES comes first, the peptide text is derived from it. The star is where a group is joined. Cbz = O=C(OCc1ccccc1)*
# What was measured:
# [1] = system: P53; assay: Proteasome inhibition of DaN cultures, P53 western blot; assay type: cell-based, human; conditions: DaN cultures treated 24 hrs
# Text: (§1) Protein degradation can be largely divided into protosomal and autophagy/lysosomal degradation pathways.
# [2] = system: α-Synuclein; assay: Proteasome inhibition of DaN cultures, α-Synuclein western blot; assay type: cell-based, human; conditions: DaN cultures treated 24 hrs
# Text: as §1
# [3] = system: SNCA; assay: SNCA gene expression along time-course of PEP treatment; assay type: cell-based, human; conditions: paired time-course samples
# Text: (§2) The elevated phosphorylation of PKCa was absent in the undifferentiated iPSCs and no clear pattern was evident in peripheral blood from the individual patients indicating specificity to the differentiated DaNs.
# [4] = PKC delta signal in DaN cultures on drug treatment; assay type: cell-based, human
# Text: (§3) It is likely that the toxicity of PEP is more specific to highly proliferative cells whereas our differentiated neurons are largely post mitotoic.
# [5] = system: α-Synuclein; assay: Western blot of α-Synuclein in iPSC-derived DaNs treated with lysosomal agonists; assay type: cell-based, human; conditions: for amount of α-Synuclein protein: DaNs from control lines
# Method: (§4) To test if the Inventors could reduce synuclein levels in our EOSPD DANs through activation of lysosomal specific pathways, the Inventors selected 3 lysosomal agonists. […] Starting at day 27, DaNs were treated for 3 days with the above lysosomal agonists.
# as §2
# [6] = system: PKC C1 domains; conditions: cited from earlier work
# [7] = system: p-PKCa; assay: Western blot of phosphorylated PKC alpha in treated DaNs; assay type: cell-based, human
# Text: as §2
# [8] = system: TH; assay: Injection into ventricles of WT mice, TH in striatum; assay type: in vivo, mouse; conditions: WT mice, 0.3, 3, and 30 uM injected into ventricles, 1 and 5 days post injection
# Method: (§5) In vivo, PEP stimulates synuclein degradation. Dosage studies of 0.3, 3, and 30 uM PEP was injected into the ventricles of WT mice.
# [9] = system: various cancer cell lines and primary acute myeloid leukaemia (AML) cells; conditions: cited from earlier work
# [10] = system: TH; assay: TH gene expression along time-course of PEP treatment; assay type: cell-based, human; conditions: paired time-course samples
# Text: as §2
# [11] = system: TH enzyme; assay: Western blot of TH enzyme in treated DaNs; assay type: cell-based, human; conditions: both control and PD DaNs
# Method: as §4
# [12] = system: LC3; assay: Western blot of LC3 in PEP-treated DaNs; assay type: cell-based, human; conditions: PD cells
# Text: as §2
# [13] = system: LAMP1; assay: Western blot of LAMP1 in PEP-treated DaNs; assay type: cell-based, human; conditions: for LAMP1 response to treatment: PD cells
# Text: as §2
# PEP is described as both an activator of the pro-apoptotic […] and an inhibitor of PKCα.
# [14] = system: cleaved caspase 3 (CC3); assay: Cleaved caspase 3 in time-course of PEP treatment of DaNs; assay type: cell-based, human; conditions: PD cells, on drug treatment; listed as PEP
# Text: as §2, §3
# [15] = system: DaN cultures; assay: LDH on drug treatment of DaN cultures (cell death); assay type: cell-based, human
# Text: as §3
# [16] = system: synuclein; assay: Injection into ventricles of WT mice, synuclein in striatum; assay type: in vivo, mouse; conditions: WT mice, 0.3, 3, and 30 uM injected into ventricles, 1 and 5 days post injection
# Method: as §5
# [17] = system: PC12 cell model; conditions: cited from earlier work
# [18] = treated 3 days starting at day 27
# [19] = time-course, control and PD DaNs
compound,measurement,setting,value
CC(C)C[C@@H](C=O)NC(=O)[C@H](CC(C)C)NC(=O)[C@H](CC(C)C)NC(=O)OCc1ccccc1 [MG132] (Cbz-Leu-Leu-Leu-aldehyde),P53 level,[1],accumulation of P53
same,α-Synuclein levels,[2],no substantial change
"C/C=C(/C)C(=O)O[C@H]1C(C)=C[C@]23C(=O)[C@@H](C=C(CO)[C@@H](O)[C@]12O)[C@H]1[C@@H](C[C@H]3C)C1(C)C [PEP005, ingenol-3-angelate]",time after treatment at which SNCA is downregulated,[3],4 h
same,PKC6 signal,[4],did not observe a strong PKC6 signal
same,amount of α-Synuclein protein,[5]; [18],significantly reduced
same,synuclein levels,"[5]; ESOPD DaNs, treated 3 days starting at day 27",substantially reduced
same,α-Synuclein levels,[5]; both control and PD DaNs,reduced
same,synuclein,"[5]; luM PEP005 for 3 days, all treated lines",reduced synuclein
same,time until α-Synuclein is degraded in response to drug treatment,[5]; [19],≤ 24 h
same,affinity for PKC C1 domains,[6],subnanomolar affinity
same,selectivity for individual PKC isoforms,[6]; in vitro,no selectivity
same,PKC alpha phosphorylation signal,"[7]; control and PD DaNs, at endpoint",completely ablating this signal
same,elevated phosphorylation of PKCa,"[7]; luM PEP005 for 3 days, DaNs from all iPSC lines",clearly ablated
same,time until p-PKCa is degraded in response to drug treatment,[7]; [19],≤ 24 h
same,TH in mouse striatum,[8],increase in TH
same,apoptosis,[9]; leukemic cell lines and primary AML cells,induces apoptosis
same,proliferation,[9]; various cancer cell lines and primary AML cells,inhibiting proliferation
same,time after initial exposure at which TH is upregulated,[10],roughly 8 hours
same,amount of TH enzyme present,[11],increased amount of TH enzyme present
same,amount of TH enzyme present,[11]; listed as PEP,increase in the amount of TH
same,LC3 response to treatment,[12],neither LAMP1 nor LC3 respond
same,LAMP1 response to treatment,[13],does not appear to be replicated
same,LAMP1 response to treatment,[13]; listed as PEP,neither LAMP1 nor LC3 respond
same,lysosomal protein LAMP1,[13]; control cells,increase
same,cleaved caspase 3 (CC3) present,[14],marked decrease; also recorded: decrease in the amount of active caspase 3
same,LDH on drug treatment,[15],nor do the Inventors see an increase in LDH
same,synuclein in mouse striatum,[16],Reduction of synuclein
C=CCNc1ncnc2ccc(Br)cc12 [SMER28],Huntington and α-Synuclein aggregates,[17],reduce Huntington and α-Synuclein aggregates
same,amount of α-Synuclein protein,[5]; [18],significantly reduced
OC[C@H]1O[C@H](O[C@H]2O[C@H](CO)[C@@H](O)[C@H](O)[C@H]2O)[C@H](O)[C@@H](O)[C@@H]1O [Trehalose],amount of α-Synuclein protein,[5]; [18],not Trehalose significantly reduced
